# Assay results published in PMC9739105, “Myotoxin-3 from the Pacific Rattlesnake Crotalus oreganus oreganus Venom Is a New Microtubule-Targeting Agent” (Molecules, 2022).
# Where no end group is shown, it is not given here.
# Assays:
# [1] = system: EB1; conditions: through phosphorylation of EB1 by GSK3; ref [34]; cited from earlier work
# [2] = system: HeLa cells; conditions: ref [30]; cited from earlier work
# Description: (§1) We also observed a different response of MCF-7 and U87 cells when measuring cell viability upon myotoxin-3 treatment. […] The tubulin isotype composition impacts the structural properties of microtubules and tunes their dynamics. Tubulin is also subjected to a large diversity of post-translational modifications that a ...
# [3] = system: MCF-7 cells; conditions: ref [30]; cited from earlier work
# Description: as §1
# [4] = system: bacteria/fungi (anti-microbial activity); conditions: without disulfide bonds; ref [18],[19]; cited from earlier work
# [5] = system: cell; conditions: ref [24]; cited from earlier work
# Description: Moreover, myotoxin-3 altered the dynamics of microtubules in MCF-7 cells (Table 1). […] Disturbing the dynamic instability of microtubules is a hallmark o ...
# [6] = reference not given; cited from earlier work
# Description: In summary, peak 1 contains two 45-residue peptides, i.e., myotoxin-3 (45-residue His^5-myotoxin-3) and one isoform with Leucine at position 5 (45-residue Leu^5-myotoxin-3). Peak 2 contains two shorter isoforms (43 residues) of myotoxin-3 with either Histidine (43-residue His^5-myotoxin-3) or Leucine at position 5 (43-residue Leu^5-myotoxin-3) (Figure 3). This structure resemblance explains the similarity in their chromatographic behavior.
# [7] = target: lamb brain αβ-tubulin heterodimer (lamb (purified from lamb brain)); assay: ITC; PEAQ-ITC, 20 °C, 55 µM tubulin in the cell, 2.2 mM myotoxin 3 in the syringe, 20 mM sodium phosphate pH 6.5, 1 mM TCEP, 0.1 mM GTP (non-assembly buffer), one-set-of-sites model
molecule,measurement,setting,value
C[C@]12CC[C@H](O)C[C@H]1CC[C@@H]1[C@@H]2CC[C@]2(C)[C@@H](c3ccc(=O)oc3)CC[C@]12O [bufalin],Effect on microtubule dynamics,[1],affecting microtubule dynamics through the phosphorylation of EB1 by GSK3
C[C@@H]1O[C@@H](O[C@@H]2C=C3CC[C@@H]4[C@H](CC[C@]5(C)[C@@H](c6ccc(=O)oc6)CC[C@]45O)[C@@]3(C)CC2)[C@H](O)[C@H](O)[C@H]1O [proscillaridin A],Effect on microtubule dynamics,[1],affecting microtubule dynamics through the phosphorylation of EB1 by GSK3
CC[C@]1(O)C[C@H]2CN(CCc3c([nH]c4ccccc34)[C@@](C(=O)OC)(c3cc4c(cc3OC)N(C=O)[C@H]3[C@@](O)(C(=O)OC)[C@H](OC(C)=O)[C@]5(CC)C=CCN6CC[C@]43[C@@H]65)C2)C1 [vincristine],Response of cells to vincristine,[2],detached and died
same,Response of cells to vincristine,[3],reattached to the culture flask after a failed mitosis and remained viable
"DTT-reduced crotamine: DTT-reduced crotamine (YKQCHKKGGHCFPKEKICLPPSSDFGKMDCRWRWKCCKKGSG; DTT-reduced; UniProt Q9PWF3 23-64, looked up)",Antimicrobial activity,[4],kept their antimicrobial activity
crotamine,Cell penetration,[5],cell-penetrating properties
same,Anti-proliferative effect,[6],displaying an anti-proliferative effect
"non-structured crotamine: non-structured crotamine (without disulfide bonds) (YKQCHKKGGHCFPKEKICLPPSSDFGKMDCRWRWKCCKKGSG; without disulfide bonds; UniProt Q9PWF3 23-64, looked up)",Antimicrobial activity,[4],keeps its anti-microbial activity
"non-structured recombinant crotamine: non-structured recombinant crotamine expressed in bacteria (YKQCHKKGGHCFPKEKICLPPSSDFGKMDCRWRWKCCKKGSG; also: recombinant, without disulfide bonds; UniProt Q9PWF3 23-64, looked up)",Antimicrobial activity,[4],kept their antimicrobial activity
YKRCHKKGGHCFPKTVICLPPSSDFGKMDCRWKWKCCKKGSVNNA (cysteines not oxidized (no disulfide bonds)) [synthetic non-oxidized myotoxin-3 (without disulfide bonds)],Kd,[7],5.3 µM
same,stoichiometry N,[7]; scale: myotoxin-3 molecules per tubulin heterodimer,2
